Measurements from patent US20240262795A1, “PYRAZINE COMPOUNDS AS INHIBITORS OF FLT3” (Biomea Fusion, Inc., priority 2021, published 2024).

What was measured:
[1] = molecular target: T1, Ba/F3 cell lines stably expressing human FLT3-ITD (Homo sapiens, UniProt P36888, cells depend on it, form not given); test: FLT3 mutant assay, cell viability, Ba/F3-FLT3-ITD; type: cell-based, mouse; conditions: IC50 (3 days), CellTiter-Glo; read-out: Ba/F3-FLT3-ITD Relative IC50
T1 sequence (P36888 1-993): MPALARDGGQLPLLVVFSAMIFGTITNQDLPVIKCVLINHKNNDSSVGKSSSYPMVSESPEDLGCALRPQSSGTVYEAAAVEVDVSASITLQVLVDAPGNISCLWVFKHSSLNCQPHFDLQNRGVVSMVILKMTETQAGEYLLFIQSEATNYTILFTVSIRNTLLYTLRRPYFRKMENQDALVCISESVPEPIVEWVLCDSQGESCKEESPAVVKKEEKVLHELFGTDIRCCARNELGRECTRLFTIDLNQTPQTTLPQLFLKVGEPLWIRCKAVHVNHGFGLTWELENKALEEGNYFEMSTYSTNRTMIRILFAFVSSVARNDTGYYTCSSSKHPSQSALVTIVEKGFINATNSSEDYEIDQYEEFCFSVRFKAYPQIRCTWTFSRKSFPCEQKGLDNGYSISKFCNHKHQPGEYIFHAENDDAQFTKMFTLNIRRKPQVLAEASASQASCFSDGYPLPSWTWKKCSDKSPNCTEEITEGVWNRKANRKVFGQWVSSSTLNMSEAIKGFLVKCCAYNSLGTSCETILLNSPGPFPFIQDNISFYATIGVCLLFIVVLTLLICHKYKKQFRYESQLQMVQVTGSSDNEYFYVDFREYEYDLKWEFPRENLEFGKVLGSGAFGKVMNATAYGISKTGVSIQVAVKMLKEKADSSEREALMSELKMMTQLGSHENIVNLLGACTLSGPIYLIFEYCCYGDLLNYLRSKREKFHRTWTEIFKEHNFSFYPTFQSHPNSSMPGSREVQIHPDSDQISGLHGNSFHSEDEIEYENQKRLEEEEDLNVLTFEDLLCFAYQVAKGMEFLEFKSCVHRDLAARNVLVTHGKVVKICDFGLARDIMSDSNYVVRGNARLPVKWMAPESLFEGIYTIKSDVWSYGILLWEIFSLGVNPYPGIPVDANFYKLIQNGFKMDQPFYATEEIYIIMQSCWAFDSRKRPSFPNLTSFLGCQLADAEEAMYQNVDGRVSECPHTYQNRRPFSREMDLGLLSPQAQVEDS
Experimental: Activity of compounds on FLT3 activating mutations were assessed using Ba/F3 cell lines (mouse pro-B cell line) stably expressing human FLT3-ITD, FLT3-ITD-D835Y or FLT3-ITD-F691L. […] The supernatant collected were concentrated with PEG8000 and used to infect Ba/F3 cells at 1-5 MOI in serum-free media with polybrene. Infected Ba/F3 cells were selected in presence of puromycin, and surviving cells verified by sequencing and/or protein detection assay. Constitutive expression of the activating kinase transforms the Ba/F3 cells into IL-3-independent growth allowing them to be cultured in the absence of IL-3. […] For use in compound testing, cells in exponential growth phase were harvested, counted, and resuspended at the required cell density. Cell viability assays were performed in 96-well assay plates and 90 μL of cell suspension seeded per well. Serial dilutions of the test compounds and assay controls and were freshly prepared for the assay. Nine-point 3× serial dilutions were prepared in 100% DMSO (400× stock) and subsequently diluted in cell culture media to obtain 10× stocks. Ten microliters of the 10× stock serial dilutions were added to the appropriate wells (triplicate wells per condition) in the assay plate. […] Assay plates were incubated for 3 days in at 37° C. in a humidified incubator with 5% CO2.
Inhibition rate (IR) of the tested compounds was determined by the following formula: IR (%)=(1−(RLU compound−RLU blank)/(RLU control−RLU blank))*100%. The inhibitions of different dose of compound were calculated in Excel file, and the dose responses were analysed using GraphPad Prism to evaluate related parameters, such as Bottom, Top and IC50. For the IC50 analysis by GraphPad Prism, the equation below was used to fit curve: Y=Bottom+(Top−Bottom)/(1+10^((LogIC50−X)*HillSlope))

MOLM-13 = test: Proliferation inhibition, CellTiter-Glo, MOLM-13; type: cell-based, human; conditions: Homo sapiens, 96 h; MOLM-13 cells, IC50 (4 days), CellTiter-Glo; read-out: MOLM-13 IC50
Procedure, shortened: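 About 10,000 cells per well in RPMI-1640 with 10% FBS. Compounds added 2 h after seeding at eight concentrations in duplicate (0.2% DMSO as 100% proliferation), then incubated ~96 h at 37° C, 5% CO2. ATP measured by CellTiter-Glo luminescence; IC50 from four-parameter logistic fit.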

IC50 (MOLM-13): < 1 nM
SMILES: CCc1nc(C(N)=O)c(Nc2ccnc(CCNC(=O)[C@H](C)N(C)C(=O)/C=C/CN(C)C)c2)nc1N(C)C(C)C [Compound 605, (S, E)-3-((2-(2-(2-(4-(dimethylamino)-N-methylbut-2-enamido)propanamido)ethyl)pyridin-4-yl)amino)-6-ethyl-5-(isopropyl (methyl)amino) pyrazine-2-carboxamide]
GI50 [1]: 1 to 10 nM
